Reference: US8222483B2, “Cytokinin oxidase sequences and methods of use” (Pioneer Hi Bred International Inc, priority 2004, dated 2012)

Tested on: ZmCkx2
Test: ZmCkx2 expression in leaf discs incubated with benzyladenine (Northern and Lynx analyses)
Format: cell-based, maize
Settings: leaf discs incubated with 10 μM benzyladenine
Method: Northern analysis of ZmCkx2 was performed using ExpressHyb™ Hybridization Solution from BD Biosciences Clontech (Palo Alto, Calif.) with a final wash in 0.1×SSC, 0.1% SDS at 65° C. for 20 minutes.
A tight relationship exists between Lynx and Northern data for ZmCkx2. This provided confidence when the Lynx database was mined for ZmCkx2 expression in various plant parts. […] Similarly, Northern data indicated strongest signals from ear leaf and midrib tissues; intermediate levels in tassel, husk leaves, young leaves, stalk, and pulvini; and lower levels in cob and ovary tissue. Little to no ZmCkx2 activity was detected by Northern analysis of roots or silks.

For `c1ccc(CNc2ncnc3nc[nH]c23)cc1` [benzyladenine], the “increase in ZmCkx2 expression” value was 2 fold.
